Laboratory results taken from BindingDB's records for doi:10.1021/acs.jnatprod.4c00082 (Johannes Gutenberg-University, 2024).

The molecules below were run against T1, Signal transducer and activator of transcription 6 (Homo sapiens, UniProt P42226) (assay: Inhibition of IL-4 induced STAT6 signaling in human HepG2 cells harboring pRL-EF1alpha, pGL3-TK-7xN4 and TOPO-Stat6 plasmid assessed as luciferase activity incubated for 24 hrs).
T1 sequence (P42226 whole entry): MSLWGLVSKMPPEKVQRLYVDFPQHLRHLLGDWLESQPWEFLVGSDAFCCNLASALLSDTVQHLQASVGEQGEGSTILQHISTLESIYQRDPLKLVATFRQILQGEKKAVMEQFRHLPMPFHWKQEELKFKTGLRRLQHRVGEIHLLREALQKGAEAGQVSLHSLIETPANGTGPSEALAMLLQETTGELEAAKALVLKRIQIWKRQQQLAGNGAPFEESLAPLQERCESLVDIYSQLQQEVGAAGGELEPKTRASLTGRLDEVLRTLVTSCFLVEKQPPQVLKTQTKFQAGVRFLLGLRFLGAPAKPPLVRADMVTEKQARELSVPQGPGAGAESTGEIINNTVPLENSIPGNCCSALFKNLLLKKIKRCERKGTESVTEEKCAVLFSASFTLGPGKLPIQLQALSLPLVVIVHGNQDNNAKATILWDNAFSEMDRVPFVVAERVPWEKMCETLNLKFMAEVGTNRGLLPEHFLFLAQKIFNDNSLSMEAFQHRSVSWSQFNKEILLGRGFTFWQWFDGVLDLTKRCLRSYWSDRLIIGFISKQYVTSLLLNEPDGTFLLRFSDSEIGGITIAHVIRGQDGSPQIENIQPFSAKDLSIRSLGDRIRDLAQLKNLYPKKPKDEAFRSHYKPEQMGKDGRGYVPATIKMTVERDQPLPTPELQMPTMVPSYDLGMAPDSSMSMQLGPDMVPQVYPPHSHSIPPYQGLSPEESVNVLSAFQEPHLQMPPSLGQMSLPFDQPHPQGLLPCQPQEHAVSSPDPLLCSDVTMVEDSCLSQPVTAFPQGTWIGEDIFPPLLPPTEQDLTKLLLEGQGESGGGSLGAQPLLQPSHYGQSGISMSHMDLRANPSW

| IC50 | Compound |
| --- | --- |
| 72 nM | C/C1=C/C[C@@H](O)[C@H](C)[C@@H](C)OC(=O)Cc2c(Cl)c(O)cc(O)c2C1=O |
| 64 nM | C/C1=C/C[C@H](O)[C@H](C)[C@@H](C)OC(=O)Cc2c(Cl)c(O)cc(O)c2C1=O |

Further lines, the molecule ahead of its results:

| Compound | IC50 |
| --- | --- |
| C/C1=C\C[C@H](O)[C@H](C)[C@@H](C)OC(=O)Cc2c(Cl)c(O)cc(O)c2C1=O | 50 nM |
| C/C1=C\C[C@@H](O)[C@H](C)[C@H](C)OC(=O)Cc2c(Cl)c(O)cc(O)c2C1=O | 1000 nM |
| C/C1=C\C[C@H](O)[C@H](C)[C@H](C)OC(=O)Cc2c(Cl)c(O)cc(O)c2C1=O | 200 nM |
